Data reported in ChEMBL document CHEMBL2176989, “Design, synthesis, and pharmacological evaluation of piperidin-4-yl amino aryl sulfonamides: novel, potent, selective, orally active, and brain penetrant 5-HT₆ receptor antagonists” (J Med Chem, 2012).
The source made the active and inactive calls. No cut-off for these calls is given here.

Legend:
[1] = Cmax in fasted Wistar rat at 10 mg/kg, po; format: ADME, organism-based; parameters: dose 10 mg/kg, route oral; conditions: in vivo
[2] = Oral bioavailability in fasted Wistar rat at 10 mg/kg; format: ADME, organism-based; conditions: in vivo
[3] = test system: Rattus norvegicus; assay: Toxicity in po dosed Wistar rat assessed as phospholipidosis in multiple organs administered as repeated dose for 7 days; format: organism-based; conditions: in vivo, 168 h
[4] = target: D(2) dopamine receptor (Homo sapiens, UniProt P14416); assay: Binding affinity to dopamine D2 receptor
[5] = AUC (0 to 24 hrs) in fasted Wistar rat at 10 mg/kg, po; format: ADME, organism-based; parameters: time < 24 hr, dose 10 mg/kg, route oral; conditions: plasma
[6] = target: T1, 5-hydroxytryptamine receptor 3A (Homo sapiens, UniProt P46098); assay: Binding affinity to 5HT3 receptor
T1 sequence (P46098 whole entry): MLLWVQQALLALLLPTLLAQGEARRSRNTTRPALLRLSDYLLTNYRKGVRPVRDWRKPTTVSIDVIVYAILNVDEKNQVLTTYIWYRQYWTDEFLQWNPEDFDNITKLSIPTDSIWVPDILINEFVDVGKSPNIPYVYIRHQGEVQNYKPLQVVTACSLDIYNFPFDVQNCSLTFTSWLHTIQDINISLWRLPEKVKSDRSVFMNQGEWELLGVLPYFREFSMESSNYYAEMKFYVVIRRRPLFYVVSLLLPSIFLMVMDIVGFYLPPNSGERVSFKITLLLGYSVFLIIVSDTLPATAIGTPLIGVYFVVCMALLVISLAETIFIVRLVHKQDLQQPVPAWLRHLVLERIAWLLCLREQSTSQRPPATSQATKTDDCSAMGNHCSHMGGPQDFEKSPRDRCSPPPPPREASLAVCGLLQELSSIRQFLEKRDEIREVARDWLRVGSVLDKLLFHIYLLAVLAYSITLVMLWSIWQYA

[7] = target: 5-hydroxytryptamine receptor 6 (Homo sapiens) (UniProt P50406); assay: Antagonist activity at human recombinant 5HT6 receptor expressed in CHO cells assessed as inhibition of 5HT-induced luciferase activity after 4 hrs by reporter gene assay; format: functional, cell-based
5-hydroxytryptamine receptor 6 (Homo sapiens), sequence (P50406 whole entry): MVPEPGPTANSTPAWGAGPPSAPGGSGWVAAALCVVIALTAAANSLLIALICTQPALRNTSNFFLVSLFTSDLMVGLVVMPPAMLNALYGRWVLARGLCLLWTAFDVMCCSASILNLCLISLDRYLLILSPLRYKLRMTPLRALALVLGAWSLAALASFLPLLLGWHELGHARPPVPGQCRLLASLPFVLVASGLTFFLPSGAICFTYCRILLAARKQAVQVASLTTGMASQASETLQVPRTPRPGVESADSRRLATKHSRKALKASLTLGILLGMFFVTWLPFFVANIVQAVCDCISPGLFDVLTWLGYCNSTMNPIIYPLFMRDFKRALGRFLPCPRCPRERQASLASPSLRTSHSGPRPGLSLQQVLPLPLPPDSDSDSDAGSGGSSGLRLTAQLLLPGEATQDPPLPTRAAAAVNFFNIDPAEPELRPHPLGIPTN

[8] = Apparent volume of distribution in Wistar rat at 10 mg/kg, iv; format: ADME, organism-based; parameters: dose 10 mg/kg, route intravenous; conditions: in vivo, read-out: Vz
[9] = target: Cytochrome P450 3A4 (Homo sapiens, UniProt P08684); assay: Inhibition of CYP3A4 in human liver microsomes using midazolam as substrate after 5 mins by LC-MS/MS analysis in presence of NADPH
Cytochrome P450 3A4, sequence (P08684 whole entry): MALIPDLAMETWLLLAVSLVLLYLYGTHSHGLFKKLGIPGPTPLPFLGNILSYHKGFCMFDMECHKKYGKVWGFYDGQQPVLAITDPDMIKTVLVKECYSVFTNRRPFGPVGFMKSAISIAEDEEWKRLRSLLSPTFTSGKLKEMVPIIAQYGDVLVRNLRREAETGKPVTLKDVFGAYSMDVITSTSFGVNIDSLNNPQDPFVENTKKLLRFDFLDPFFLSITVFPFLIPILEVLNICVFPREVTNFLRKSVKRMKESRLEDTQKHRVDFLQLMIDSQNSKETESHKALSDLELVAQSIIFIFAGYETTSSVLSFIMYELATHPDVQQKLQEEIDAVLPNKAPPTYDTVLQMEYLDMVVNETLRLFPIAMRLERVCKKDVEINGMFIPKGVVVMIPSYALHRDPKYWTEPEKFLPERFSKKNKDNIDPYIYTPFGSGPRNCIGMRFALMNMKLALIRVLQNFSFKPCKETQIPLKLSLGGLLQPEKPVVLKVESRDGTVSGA

[10] = target: 5-hydroxytryptamine receptor 2A (Homo sapiens, UniProt P28223); assay: Binding affinity to 5HT2A receptor
5-hydroxytryptamine receptor 2A, sequence (P28223 whole entry): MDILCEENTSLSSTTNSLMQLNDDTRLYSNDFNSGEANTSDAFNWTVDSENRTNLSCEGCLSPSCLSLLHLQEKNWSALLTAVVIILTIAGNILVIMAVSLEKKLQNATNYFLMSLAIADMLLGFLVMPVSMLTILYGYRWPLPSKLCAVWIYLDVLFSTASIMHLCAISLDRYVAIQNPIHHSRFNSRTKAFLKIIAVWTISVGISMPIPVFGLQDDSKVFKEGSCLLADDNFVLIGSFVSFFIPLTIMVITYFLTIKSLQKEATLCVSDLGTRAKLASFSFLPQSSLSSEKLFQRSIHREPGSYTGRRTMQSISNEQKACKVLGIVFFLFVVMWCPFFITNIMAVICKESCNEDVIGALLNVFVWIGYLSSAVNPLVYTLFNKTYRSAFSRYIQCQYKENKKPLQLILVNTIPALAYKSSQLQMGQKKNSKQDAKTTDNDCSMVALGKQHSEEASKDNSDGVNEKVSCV

[11] = target: 5-hydroxytryptamine receptor 6 (Homo sapiens) (UniProt P50406); assay: Antagonist activity at human recombinant 5HT6 receptor expressed in CHO cells assessed as inhibition of 5HT-induced luciferase activity after 4 hrs by reporter gene assay relative to control; format: functional, cell-based
[12] = test system: Rattus norvegicus; assay: Procognitive activity in Wistar rat assessed as reversal of time delay induced-memory deficit at 3 mg/kg, po by object recognition test; format: functional, organism-based; parameters: dose 3 mg/kg
[13] = target: Cytochrome P450 2D6 (Homo sapiens, UniProt P10635); assay: Inhibition of CYP2D6 in human liver microsomes using dextromethorphan as substrate after 10 mins by LC-MS/MS analysis in presence of NADPH
Cytochrome P450 2D6, sequence (P10635 whole entry): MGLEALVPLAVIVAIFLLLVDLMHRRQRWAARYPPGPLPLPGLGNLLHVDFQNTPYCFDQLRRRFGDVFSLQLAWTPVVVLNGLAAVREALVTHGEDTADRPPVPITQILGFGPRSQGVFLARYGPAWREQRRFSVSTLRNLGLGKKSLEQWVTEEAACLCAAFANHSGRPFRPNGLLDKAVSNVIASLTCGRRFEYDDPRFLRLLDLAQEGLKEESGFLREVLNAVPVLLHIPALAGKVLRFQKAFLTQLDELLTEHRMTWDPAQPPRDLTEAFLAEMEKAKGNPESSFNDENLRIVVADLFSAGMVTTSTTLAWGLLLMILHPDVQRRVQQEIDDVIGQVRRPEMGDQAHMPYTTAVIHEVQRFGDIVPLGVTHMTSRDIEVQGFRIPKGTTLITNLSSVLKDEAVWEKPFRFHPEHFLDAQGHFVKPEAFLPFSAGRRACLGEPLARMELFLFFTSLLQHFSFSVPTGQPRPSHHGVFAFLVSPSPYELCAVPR

[14] = Drug metabolism in Wistar rat liver microsomes at 2.5 uM at 30 mins by LC-MS/MS analysis; format: ADME, Microsome; conditions: read-out: Drug metabolism
[15] = target: Histamine H1 receptor (Homo sapiens, UniProt P35367); assay: Binding affinity to histamine H1 receptor
Histamine H1 receptor, sequence (P35367 whole entry): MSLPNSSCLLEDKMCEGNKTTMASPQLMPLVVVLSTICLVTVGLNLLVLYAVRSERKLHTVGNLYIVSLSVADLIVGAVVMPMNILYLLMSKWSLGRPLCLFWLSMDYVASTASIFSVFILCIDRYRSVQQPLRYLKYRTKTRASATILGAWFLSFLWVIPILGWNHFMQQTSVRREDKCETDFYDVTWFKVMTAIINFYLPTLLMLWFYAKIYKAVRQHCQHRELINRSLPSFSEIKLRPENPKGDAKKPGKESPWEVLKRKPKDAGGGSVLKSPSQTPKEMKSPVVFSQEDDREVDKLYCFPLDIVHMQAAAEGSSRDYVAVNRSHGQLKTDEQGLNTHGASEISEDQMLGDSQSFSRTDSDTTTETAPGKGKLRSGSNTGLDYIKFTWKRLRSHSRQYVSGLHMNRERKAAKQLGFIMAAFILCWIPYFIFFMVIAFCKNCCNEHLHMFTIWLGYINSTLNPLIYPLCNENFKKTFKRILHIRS

[16] = target: 5-hydroxytryptamine receptor 4 (Homo sapiens, UniProt Q13639); assay: Binding affinity to 5HT4 receptor
[17] = target: Sodium-dependent dopamine transporter (Homo sapiens, UniProt Q01959); assay: Binding affinity to dopamine transporter
Sodium-dependent dopamine transporter, sequence (Q01959 whole entry): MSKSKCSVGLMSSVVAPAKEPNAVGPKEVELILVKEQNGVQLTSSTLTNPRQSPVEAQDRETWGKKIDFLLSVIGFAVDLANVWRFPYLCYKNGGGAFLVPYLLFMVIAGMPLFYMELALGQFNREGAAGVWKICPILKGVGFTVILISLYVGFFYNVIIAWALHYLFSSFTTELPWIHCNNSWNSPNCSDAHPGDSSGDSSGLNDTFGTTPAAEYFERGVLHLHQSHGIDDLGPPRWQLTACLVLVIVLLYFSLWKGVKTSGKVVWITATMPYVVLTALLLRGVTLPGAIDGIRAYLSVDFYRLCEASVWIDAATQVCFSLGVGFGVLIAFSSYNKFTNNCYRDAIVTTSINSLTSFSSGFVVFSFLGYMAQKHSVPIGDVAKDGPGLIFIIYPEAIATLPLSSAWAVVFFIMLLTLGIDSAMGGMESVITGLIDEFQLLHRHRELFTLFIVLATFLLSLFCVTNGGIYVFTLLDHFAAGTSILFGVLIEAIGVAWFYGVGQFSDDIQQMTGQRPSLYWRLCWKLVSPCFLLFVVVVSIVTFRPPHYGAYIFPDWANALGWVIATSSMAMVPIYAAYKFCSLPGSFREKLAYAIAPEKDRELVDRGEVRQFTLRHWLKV

[18] = Ratio of drug uptake in brain to plasma in Wistar rat at 10 mg/kg, po after 1 hr; format: ADME, organism-based; parameters: dose 10 mg/kg, route oral; conditions: read-out: BPR
[19] = Drug metabolism in human liver microsomes at 2.5 uM at 30 mins by LC-MS/MS analysis; format: ADME, Microsome; conditions: read-out: Drug metabolism
[20] = Tmax in fasted Wistar rat at 10 mg/kg, po; format: ADME, organism-based; parameters: dose 10 mg/kg, route oral; conditions: in vivo
[21] = Half life in Wistar rat at 10 mg/kg, iv; format: ADME, organism-based; parameters: dose 10 mg/kg, route intravenous; conditions: in vivo
[22] = target: 5-hydroxytryptamine receptor 7 (Homo sapiens, UniProt P34969); assay: Binding affinity to 5HT7 receptor
5-hydroxytryptamine receptor 7, sequence (P34969 whole entry): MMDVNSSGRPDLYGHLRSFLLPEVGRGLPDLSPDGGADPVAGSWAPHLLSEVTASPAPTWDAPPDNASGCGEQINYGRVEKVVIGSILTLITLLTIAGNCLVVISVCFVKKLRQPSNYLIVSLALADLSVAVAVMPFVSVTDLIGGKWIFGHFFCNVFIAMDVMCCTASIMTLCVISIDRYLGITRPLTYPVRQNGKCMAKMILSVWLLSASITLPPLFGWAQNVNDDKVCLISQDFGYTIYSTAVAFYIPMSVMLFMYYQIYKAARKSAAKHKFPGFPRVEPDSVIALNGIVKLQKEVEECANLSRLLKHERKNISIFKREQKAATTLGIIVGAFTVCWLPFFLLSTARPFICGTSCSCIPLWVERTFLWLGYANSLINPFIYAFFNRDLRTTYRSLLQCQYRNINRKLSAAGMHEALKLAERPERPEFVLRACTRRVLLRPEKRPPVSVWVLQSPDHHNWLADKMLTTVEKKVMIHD

[23] = test system: Rattus norvegicus; assay: Procognitive activity in Wistar rat assessed as reversal of time delay induced-memory deficit at 1 mg/kg, po by object recognition test; format: functional, organism-based; parameters: dose 1 mg/kg
[24] = AUC (0 to 24 hrs) in Wistar rat at 10 mg/kg, iv; format: ADME, organism-based; parameters: time < 24 hr, dose 10 mg/kg, route intravenous; conditions: plasma
[25] = target: Voltage-gated inwardly rectifying potassium channel KCNH2 (Homo sapiens, UniProt Q12809); assay: Displacement of [3H]astemizole from human ERG by microbeta scintillation counting
Voltage-gated inwardly rectifying potassium channel KCNH2, sequence (Q12809 whole entry): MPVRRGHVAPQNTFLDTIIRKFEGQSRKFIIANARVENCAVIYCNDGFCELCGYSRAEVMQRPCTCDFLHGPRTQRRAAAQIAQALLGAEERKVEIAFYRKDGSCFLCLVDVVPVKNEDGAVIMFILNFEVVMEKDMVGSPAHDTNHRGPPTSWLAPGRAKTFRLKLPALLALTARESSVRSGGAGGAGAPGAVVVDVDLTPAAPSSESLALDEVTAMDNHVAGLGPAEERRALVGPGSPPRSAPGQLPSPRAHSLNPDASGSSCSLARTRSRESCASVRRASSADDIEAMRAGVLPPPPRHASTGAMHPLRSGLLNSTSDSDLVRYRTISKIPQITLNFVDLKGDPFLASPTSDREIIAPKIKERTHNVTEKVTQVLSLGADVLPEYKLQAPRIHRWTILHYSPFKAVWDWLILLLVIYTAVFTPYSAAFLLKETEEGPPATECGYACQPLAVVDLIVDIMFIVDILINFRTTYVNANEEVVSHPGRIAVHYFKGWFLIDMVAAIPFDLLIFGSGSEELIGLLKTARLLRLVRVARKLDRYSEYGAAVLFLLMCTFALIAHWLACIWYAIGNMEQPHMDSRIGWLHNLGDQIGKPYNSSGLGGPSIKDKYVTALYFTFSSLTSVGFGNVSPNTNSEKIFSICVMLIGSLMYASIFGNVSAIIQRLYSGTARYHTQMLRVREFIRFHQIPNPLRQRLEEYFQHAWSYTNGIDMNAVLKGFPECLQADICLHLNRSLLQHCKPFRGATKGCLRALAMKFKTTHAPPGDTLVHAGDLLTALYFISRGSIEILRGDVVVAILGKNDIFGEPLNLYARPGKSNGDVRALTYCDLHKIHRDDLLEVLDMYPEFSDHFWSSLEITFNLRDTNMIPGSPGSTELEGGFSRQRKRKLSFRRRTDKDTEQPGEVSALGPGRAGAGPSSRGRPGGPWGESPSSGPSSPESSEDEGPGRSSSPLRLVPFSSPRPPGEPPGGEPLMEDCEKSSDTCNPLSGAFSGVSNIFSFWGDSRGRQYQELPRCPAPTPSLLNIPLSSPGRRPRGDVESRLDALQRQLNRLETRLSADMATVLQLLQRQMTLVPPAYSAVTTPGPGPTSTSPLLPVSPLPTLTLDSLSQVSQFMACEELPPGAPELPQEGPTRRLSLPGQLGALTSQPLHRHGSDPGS

[26] = target: T2, Alpha-1B adrenergic receptor (Homo sapiens, UniProt P35368); assay: Binding affinity to adrenergic alpha1B receptor
T2 sequence (P35368 whole entry): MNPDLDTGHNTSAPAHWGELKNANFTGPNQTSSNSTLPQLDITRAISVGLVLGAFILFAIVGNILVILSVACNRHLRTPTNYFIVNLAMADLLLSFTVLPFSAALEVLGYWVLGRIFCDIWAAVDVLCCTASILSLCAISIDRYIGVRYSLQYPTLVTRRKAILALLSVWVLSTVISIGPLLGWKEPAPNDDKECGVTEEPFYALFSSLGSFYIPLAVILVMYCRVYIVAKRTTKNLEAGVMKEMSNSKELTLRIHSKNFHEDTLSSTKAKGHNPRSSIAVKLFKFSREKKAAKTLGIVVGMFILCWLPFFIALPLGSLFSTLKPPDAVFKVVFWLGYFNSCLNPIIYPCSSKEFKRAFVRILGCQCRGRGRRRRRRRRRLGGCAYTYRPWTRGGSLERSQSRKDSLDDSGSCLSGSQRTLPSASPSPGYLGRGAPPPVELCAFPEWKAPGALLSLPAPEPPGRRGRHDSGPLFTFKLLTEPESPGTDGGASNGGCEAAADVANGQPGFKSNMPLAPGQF

[27] = target: Sodium-dependent serotonin transporter (Homo sapiens, UniProt P31645); assay: Binding affinity to SERT
[28] = target: T3, 5-hydroxytryptamine receptor 1A (Homo sapiens, UniProt P08908); assay: Binding affinity to 5HT1A receptor
T3 sequence (P08908 whole entry): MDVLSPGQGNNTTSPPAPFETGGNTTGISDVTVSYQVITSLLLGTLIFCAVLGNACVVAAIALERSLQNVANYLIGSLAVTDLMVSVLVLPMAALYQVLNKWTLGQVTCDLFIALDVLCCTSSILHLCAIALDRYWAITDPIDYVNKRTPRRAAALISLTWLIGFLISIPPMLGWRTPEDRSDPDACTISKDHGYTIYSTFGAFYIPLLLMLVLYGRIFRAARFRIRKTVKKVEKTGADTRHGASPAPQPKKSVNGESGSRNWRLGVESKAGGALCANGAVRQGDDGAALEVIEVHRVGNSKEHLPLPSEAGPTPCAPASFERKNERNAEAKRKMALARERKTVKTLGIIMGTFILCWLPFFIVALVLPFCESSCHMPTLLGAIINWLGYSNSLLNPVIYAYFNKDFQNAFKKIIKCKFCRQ

[29] = Clearance in Wistar rat at 10 mg/kg, iv; format: ADME, organism-based; parameters: dose 10 mg/kg, route intravenous; conditions: in vivo
[30] = target: T4, 5-hydroxytryptamine receptor 2C (Homo sapiens, UniProt P28335); assay: Binding affinity to 5HT2C receptor
T4 sequence (P28335 whole entry): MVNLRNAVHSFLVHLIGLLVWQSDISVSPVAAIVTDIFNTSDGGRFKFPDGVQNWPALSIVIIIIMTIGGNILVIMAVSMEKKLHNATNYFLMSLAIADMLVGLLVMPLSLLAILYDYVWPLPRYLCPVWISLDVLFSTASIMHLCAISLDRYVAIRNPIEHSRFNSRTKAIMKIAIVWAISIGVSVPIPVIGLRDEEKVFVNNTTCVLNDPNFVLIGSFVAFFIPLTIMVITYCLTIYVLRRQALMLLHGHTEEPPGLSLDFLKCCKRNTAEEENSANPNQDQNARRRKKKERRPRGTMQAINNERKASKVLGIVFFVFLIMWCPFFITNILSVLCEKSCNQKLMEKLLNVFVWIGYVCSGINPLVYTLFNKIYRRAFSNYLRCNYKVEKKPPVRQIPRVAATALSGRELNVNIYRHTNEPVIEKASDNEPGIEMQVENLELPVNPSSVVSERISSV

COc1ccc(S(=O)(=O)n2cc(C)c3cc(Cl)ccc32)cc1NC1CCN(C)CC1
Cmax [1]: 296 ng/mL | bioavailability [2]: 75% | Activity [3]: Toxic | Ki [4]: 303 nM | AUC(0-t) at 24 h [5]: 2090 ng·h/mL | IC50 [6]: > 10000 nM | Kb [7]: 0.02 nM | Vd [8]: 11 L/kg | IC50 [9]: 6460 nM | Ki [10]: 536 nM | Imax [11]: 100% | Activity [12]: Active | IC50 [13]: 14700 nM | metabolised at 0.5 h, 2.5 µM [14]: 40% | Ki [15]: 682 nM | EC50 [16]: > 10000 nM | Ki [17]: 2900 nM | Kp at 1 h [18]: 3.8 | metabolised at 0.5 h, 2.5 µM [19]: 0% | Tmax [20]: 1.67 h | half-life [21]: 2.2 h | Ki [22]: 6370 nM | Activity [23]: Active | AUC(0-t) at 24 h [24]: 2760 ng·h/mL | Ki [25]: 800 nM | Ki [26]: 955 nM | Ki [27]: 1940 nM | EC50 [28]: > 1000 nM | clearance [29]: 59 mL/min/kg | Ki [30]: 3120 nM
